In article PMC9531372, “Metabolic profiling and pharmacokinetic studies of Baihu-Guizhi decoction in rats by UFLC-Q-TOF–MS/MS and UHPLC-Q-TRAP-MS/MS” (Chinese Medicine, 2022):

Experiment: Pharmacokinetics of five absorbed components in rat serum after single or multiple gavage of BHGZD (UHPLC-Q-TRAP-MS/MS)
Conditions: for AUC(0-inf) / AUC(0-t) / Cmax / MRT inf / MRT last / half-life / Tmax / CL / Vd: male, Lewis, rat, po
Source text: Male Lewis rats, weighing 200–240 g, were purchased from Beijing Charles River Experimental Animals Co. Ltd. (Beijing, China). […] Animal experiments were approved and supervised by the National Institutes of Health guide for the care and use of Laboratory animals. Every effort was made to minimize both the employed animal numbers as well as the potential discomfort of the animals throughout the study.
For single administration, rats were orally administrated with BHGZD powder at dose of 21.4 g/kg, which was equivalent to two-fold of clinical dose in human. […] For multiple administration, rats were intragastrically administered BHGZD (21.4 g/kg/day) once a day, for continuous 12 days. […] Serum was freshly prepared by centrifugation and stored at – 80 ℃ till analysis.
Quantification for five absorbed compounds of BHGZD in rat serum were achieved by using a Shimadzu ultra-high-performance liquid chromatography tandem ion trap quadrupole Q-TRAP 6500 plus mass spectrometry (UHPLC-Q-TRAP-MS/MS). Sample preparations were described above.
Chromatographic separation was carried out on a Poroshell 120 EC-C18 column (50 × 3.0 mm, 2.7 μm, Agilent, USA) with a flow rate 0.3 mL/min.
The optimized parameters for the mass spectrometer were set as follows: curtain gas, 35 psi; collision gas, medium; ionspray voltage, 4500 V; temperature, 550 °C; ion source gas 1 and 2, 55 psi. […] Data acquisition and analysis were achieved by OS-Q software (version 1.4.1.20719, AB Sciex, USA). Pharmacokinetic analysis was conducted by Drug and Statistic software (version 3.0, Shanghai, China).
The developed methodology was then applied for the in vivo pharmacokinetic evaluations of these five absorbed components. After single or multiple gavages of BHGZD, rat serum was collected at indicated time points, and the concentrations of five analyte were quantified accordingly.

[1] = serum, 21.4 g/kg, rat serum, BHGZD 21.4 g/kg oral gavage, single dose, n = 8, mean ± SEM

Structure (SMILES)	AUC(0-inf) (serum, 21.4 g/kg)	AUC(0-t) (serum, 21.4 g/kg)	Cmax (serum, 21.4 g/kg)	MRT inf (serum, 21.4 g/kg)	MRT last (serum, 21.4 g/kg)	half-life (serum, 21.4 g/kg)	Tmax (serum, 21.4 g/kg, rat serum after BHGZD gavage, regimen not given)	Tmax [1]	AUC(0-inf) (in vivo, 21.4 g/kg)	AUC(0-t) (in vivo, 21.4 g/kg)	CL (in vivo, 21.4 g/kg)	Cmax (in vivo, 21.4 g/kg)	MRT inf (in vivo, 21.4 g/kg)	MRT last (in vivo, 21.4 g/kg)	Vd (in vivo, 21.4 g/kg)	half-life (in vivo, 21.4 g/kg)	Tmax (in vivo, 21.4 g/kg)	Tmax (serum, 21.4 g/kg/day, rat serum, BHGZD 21.4 g/kg/day gavage once a day for 12 days, multiple dose, sampled day 12, n = 8, mean ± SEM)	pattern of absorption and elimination in serum (rat serum, single or multiple gavages of BHGZD)
O=C(O)/C=C/c1ccccc1 [Cinnamic acid]	307 ± 120 ng·h/mL	110 ± 127 ng·h/mL	53.3 ± 32.6 ng/mL	10.5 ± 12.5 h	3.66 ± 1.03 h	2.36 ± 1.03 h	~0.3 h	0.37 ± 0.35 h											
CC1(C)[C@@H](O[C@H]2O[C@H](C(=O)O)[C@@H](O)[C@H](O)[C@H]2O[C@@H]2O[C@H](C(=O)O)[C@@H](O)[C@H](O)[C@H]2O)CC[C@]2(C)[C@H]3C(=O)C=C4[C@@H]5C[C@@](C)(C(=O)O)CC[C@]5(C)CC[C@@]4(C)[C@]3(C)CC[C@@H]12 [Glycyrrhizic acid]									91.8 ± 44.2 ng·h/mL	67.3 ± 36.8 ng·h/mL	288,330 ± 150,321 L/h/kg	15.6 ± 8.97 ng/mL	5.83 ± 1.42 h	5.06 ± 1.37 h	867,518 ± 160,982 L/kg	2.99 ± 0.82 h	5.88 ± 2.85 h		
O=c1c2cc(O)c(O)cc2oc2cc(O)c([C@@H]3O[C@H](CO)[C@@H](O)[C@H](O)[C@H]3O)c(O)c12 [Mangiferin]									298 ± 298 ng·h/mL	266 ± 306 ng·h/mL	228,709 ± 238,817 L/h/kg	48.1 ± 52.7 ng/mL	6.72 ± 6.64 h	3.6 ± 0.75 h	1,049,685 ± 1,125,516 L/kg	3.64 ± 4.82 h	2.56 ± 1.68 h		
C[C@H]1CC[C@@]2(OC1)O[C@H]1C[C@H]3[C@@H]4CC[C@@H]5C[C@@H](O[C@@H]6O[C@H](CO)[C@H](O)[C@H](O)[C@H]6O[C@@H]6O[C@H](CO)[C@@H](O)[C@H](O)[C@H]6O)CC[C@]5(C)[C@H]4CC[C@]3(C)[C@H]1[C@@H]2C [Timosaponin AIII]	45.3 ± 13.9 ng·h/mL	35.6 ± 7.99 ng·h/mL	5.41 ± 1.23 ng/mL	9.92 ± 2.73 h	7.54 ± 1.15 h	4.98 ± 1.74 h		6.38 ± 1.69 h										4.62 ± 2.13 h	dual-peak response with prolonged pattern of absorption and elimination
